Data reported in ChEMBL document CHEMBL3045195, “Comparison of the activity of non-steroidal ecdysone agonists between dipteran and lepidopteran insects, using cell-based EcR reporter assays” (Pest Manag Sci, 2010).
The source made the active and inactive calls. The calls are words filed in the database; no cut-off is given here.

Columns and labels:
Ecdysone receptor [1] = target: T1, Ecdysone receptor (Drosophila melanogaster, UniProt P20153+P34021); test: Agonist activity at ecdysone receptor in Drosophila melanogaster B2 cells assessed as reduction in cell density
T1 sequence (P34021 whole entry): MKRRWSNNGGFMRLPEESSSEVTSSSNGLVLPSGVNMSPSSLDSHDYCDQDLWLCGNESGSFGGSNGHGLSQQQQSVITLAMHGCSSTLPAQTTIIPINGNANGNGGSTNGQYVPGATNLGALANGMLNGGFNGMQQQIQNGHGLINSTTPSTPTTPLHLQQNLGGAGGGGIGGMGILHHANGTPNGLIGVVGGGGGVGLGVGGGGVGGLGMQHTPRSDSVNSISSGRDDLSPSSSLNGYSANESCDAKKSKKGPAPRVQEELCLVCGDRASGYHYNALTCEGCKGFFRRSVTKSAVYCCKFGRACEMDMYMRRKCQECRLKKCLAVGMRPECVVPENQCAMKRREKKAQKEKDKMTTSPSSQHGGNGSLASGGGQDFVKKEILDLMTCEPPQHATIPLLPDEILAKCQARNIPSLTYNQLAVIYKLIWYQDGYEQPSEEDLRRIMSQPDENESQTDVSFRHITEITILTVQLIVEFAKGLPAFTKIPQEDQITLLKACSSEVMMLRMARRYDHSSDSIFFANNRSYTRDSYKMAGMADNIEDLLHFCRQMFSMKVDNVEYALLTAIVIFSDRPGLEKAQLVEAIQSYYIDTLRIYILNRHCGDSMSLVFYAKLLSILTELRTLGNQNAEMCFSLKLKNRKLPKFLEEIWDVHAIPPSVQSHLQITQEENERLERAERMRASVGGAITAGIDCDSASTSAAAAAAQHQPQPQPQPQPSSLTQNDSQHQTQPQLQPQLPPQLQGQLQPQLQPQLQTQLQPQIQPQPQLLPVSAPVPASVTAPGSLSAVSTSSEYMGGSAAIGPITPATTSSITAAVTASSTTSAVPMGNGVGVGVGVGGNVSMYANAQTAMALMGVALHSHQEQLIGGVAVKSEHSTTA
T1 sequence (P20153 whole entry): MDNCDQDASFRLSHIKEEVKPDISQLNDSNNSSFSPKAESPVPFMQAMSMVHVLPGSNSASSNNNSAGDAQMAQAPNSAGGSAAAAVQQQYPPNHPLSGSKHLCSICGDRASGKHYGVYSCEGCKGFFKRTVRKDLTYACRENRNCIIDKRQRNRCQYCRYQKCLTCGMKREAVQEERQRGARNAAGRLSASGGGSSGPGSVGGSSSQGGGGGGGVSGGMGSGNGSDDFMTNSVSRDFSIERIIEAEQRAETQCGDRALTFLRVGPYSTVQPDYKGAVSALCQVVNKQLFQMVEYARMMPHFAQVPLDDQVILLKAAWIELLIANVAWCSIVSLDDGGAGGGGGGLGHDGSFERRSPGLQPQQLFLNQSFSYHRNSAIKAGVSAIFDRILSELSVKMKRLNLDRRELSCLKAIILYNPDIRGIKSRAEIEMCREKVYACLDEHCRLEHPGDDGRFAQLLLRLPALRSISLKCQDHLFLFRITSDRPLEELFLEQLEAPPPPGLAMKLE

Ecdysone receptor [2] = target: T2, Ecdysone receptor (Bombyx mori, UniProt P49881); test: (§1) Agonist activity at ecdysone receptor in Bombyx mori Bm5 cells after 24 hr by luciferase reporter gene assay; type: cell-based
T2 sequence (P49881 whole entry): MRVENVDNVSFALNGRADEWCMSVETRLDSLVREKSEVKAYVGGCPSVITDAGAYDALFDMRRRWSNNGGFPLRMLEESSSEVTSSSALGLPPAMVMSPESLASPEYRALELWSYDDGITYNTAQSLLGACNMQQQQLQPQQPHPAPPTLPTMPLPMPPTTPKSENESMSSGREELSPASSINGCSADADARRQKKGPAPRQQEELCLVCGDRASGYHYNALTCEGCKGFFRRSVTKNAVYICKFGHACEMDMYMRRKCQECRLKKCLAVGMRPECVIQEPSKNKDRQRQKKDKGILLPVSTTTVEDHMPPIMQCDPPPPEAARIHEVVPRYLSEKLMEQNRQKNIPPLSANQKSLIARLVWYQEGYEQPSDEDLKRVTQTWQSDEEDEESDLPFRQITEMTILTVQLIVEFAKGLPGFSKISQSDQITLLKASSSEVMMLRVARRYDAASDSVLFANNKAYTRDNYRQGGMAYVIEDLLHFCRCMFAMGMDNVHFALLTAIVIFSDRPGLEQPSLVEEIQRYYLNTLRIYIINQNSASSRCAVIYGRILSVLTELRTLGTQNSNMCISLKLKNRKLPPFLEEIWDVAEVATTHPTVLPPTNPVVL

[3] = target: T3, Ecdysone receptor (Drosophila melanogaster) (UniProt P34021+P20153); test: Agonist activity at ecdysone receptor in Drosophila melanogaster S2 cells at 100 uM after 24 hr by luciferase reporter gene assay relative to 20-hydroxyecdysone; type: cell-based
Ecdysone receptor [4] = target: T1, Ecdysone receptor; test: (§2) Agonist activity at ecdysone receptor in Drosophila melanogaster S2 cells after 24 hr by luciferase reporter gene assay; type: cell-based
[5] = target: T3, Ecdysone receptor (Drosophila melanogaster); test: as §2; type: cell-based
[6] = target: T3, Ecdysone receptor (Drosophila melanogaster); test: Agonist activity at ecdysone receptor in Drosophila melanogaster S2 cells at 10 uM after 24 hr by luciferase reporter gene assay relative to 20-hydroxyecdysone; type: cell-based
[7] = target: T4, Ecdysone receptor (Bombyx mori) (UniProt P49881); test: as §1; type: cell-based
T4 sequence (whole entry): T2 sequence (P49881 whole entry)

Ecdysone receptor [8] = target: T1, Ecdysone receptor; test: Agonist activity at ecdysone receptor in Drosophila melanogaster Kc cells after 24 hr by luciferase reporter gene assay

SMILES: CC(C)(C)N(NC(=O)c1ccccc1)C(=O)c1ccccc1[N+](=O)[O-]
- EC50 (Ecdysone receptor [1]): 1.1 µM
- EC50 (Ecdysone receptor [2]): 0.224 µM
- Efficacy [3]: 86%
- EC50 (Ecdysone receptor [4]): 15.5 µM

SMILES: CCCCCCCCCC(=O)NN(C(=O)c1cc(C)cc(C)c1)C(C)(C)C
- EC50 (Ecdysone receptor [2]): 1.55 µM
- pEC50 [5]: inactive

SMILES: CCCCC(=O)NN(C(=O)c1cc(C)cc(C)c1)C(C)(C)C
- EC50 (Ecdysone receptor [2]): 1.86 µM
- pEC50 [5]: inactive

SMILES: CCc1ccc(C(=O)NN(C(=O)c2ccccc2Cl)C(C)(C)C)cc1
- EC50 (Ecdysone receptor [1]): 0.219 µM
- EC50 (Ecdysone receptor [2]): 0.00575 µM
- Efficacy [3]: 71%
- EC50 (Ecdysone receptor [4]): 15.5 µM

SMILES: Cc1cc(C)cc(C(=O)N(NC(=O)c2ccc(Cl)cc2)C(C)(C)C)c1
- EC50 (Ecdysone receptor [2]): 0.0191 µM
- Efficacy [6]: 42%
- EC50 (Ecdysone receptor [4]): 16.6 µM

SMILES: Cc1ccc(N(C(=O)c2ccc(Cl)cc2)C2CC(C)N(C(=O)c3ccc(Cl)cc3)c3ccc(C)cc32)cc1 (stereo not given)
- pEC50 [7]: inactive
- pEC50 [5]: inactive

SMILES: Cc1ccc(NC2CCN(C(=O)c3ccc(Cl)cc3)c3ccccc32)cc1 (stereo not given)
- pEC50 [7]: inactive
- pEC50 [5]: inactive

SMILES: CCc1ccc(C(=O)NN(C(=O)CCC(C)C)C(C)(C)C)cc1
- EC50 (Ecdysone receptor [2]): 0.832 µM
- pEC50 [5]: inactive

SMILES: CCCCCC(=O)N(NC(=O)c1ccc(CC)cc1)C(C)(C)C
- EC50 (Ecdysone receptor [2]): 2.82 µM
- pEC50 [5]: inactive

SMILES: CC(C)(C)N(NC(=O)c1ccccc1)C(=O)c1ccccc1C(F)(F)F
- EC50 (Ecdysone receptor [1]): 3.63 µM
- EC50 (Ecdysone receptor [2]): 0.631 µM
- Efficacy [3]: 63%
- EC50 (Ecdysone receptor [4]): 33.9 µM

SMILES: CC1CCc2ccccc2N1C(=O)c1ccc(Cl)cc1 (stereo not given)
- pEC50 [7]: inactive
- pEC50 [5]: inactive

SMILES: CCCCCCCC(=O)NN(C(=O)c1cc(C)cc(C)c1)C(C)(C)C
- EC50 (Ecdysone receptor [2]): 0.0977 µM
- pEC50 [5]: inactive

SMILES: Cc1ccc(C(=O)NN(C(=O)c2cc(C)cc(C)c2)C(C)(C)C)cc1
- EC50 (Ecdysone receptor [2]): 0.012 µM
- Efficacy [6]: 46%
- EC50 (Ecdysone receptor [4]): 11.2 µM

SMILES: CCc1ccc(C(=O)NC2(C(=O)c3cc(C)cc(C)c3)CCCCC2)cc1
- Efficacy [6]: 4%
- EC50 (Ecdysone receptor [4]): > 10 µM

SMILES: CN(NC(=O)c1ccccc1)C(=O)c1ccccc1
- EC50 (Ecdysone receptor [2]): > 100 µM
- pEC50 [5]: inactive

SMILES: CC(C)(C)N(NC(=O)c1ccccc1)C(=O)c1ccccc1F
- EC50 (Ecdysone receptor [1]): 6.17 µM
- EC50 (Ecdysone receptor [2]): 0.309 µM
- Efficacy [3]: 62%
- EC50 (Ecdysone receptor [4]): 72.4 µM

SMILES: Cc1ccc(NC2CC(C)N(C(=O)c3ccc(C(C)(C)C)cc3)c3ccc(C)cc32)cc1 (stereo not given)
- pEC50 [7]: inactive
- pEC50 [5]: inactive

SMILES: CC(C)(C)N(NC(=O)c1cccc(Cl)c1)C(=O)c1ccccc1Cl
- EC50 (Ecdysone receptor [1]): 1.2 µM
- EC50 (Ecdysone receptor [2]): 0.155 µM
- Efficacy [3]: 80%
- EC50 (Ecdysone receptor [4]): 16.6 µM

SMILES: COc1ccccc1C(=O)N(NC(=O)c1ccccc1)C(C)(C)C
- EC50 (Ecdysone receptor [1]): 3.8 µM
- EC50 (Ecdysone receptor [2]): 0.525 µM
- Efficacy [3]: 44%
- EC50 (Ecdysone receptor [4]): 120 µM

SMILES: CC(C)(C)N(NC(=O)c1ccc(-c2ccccc2)cc1)C(=O)c1ccccc1Cl
- EC50 (Ecdysone receptor [8]): > 100 µM

SMILES: CCCCN(C(=O)c1ccccc1)N(C(=O)c1ccccc1)C(C)(C)C
- EC50 (Ecdysone receptor [2]): > 100 µM
- pEC50 [5]: inactive

SMILES: CN(C(=O)c1ccccc1)N(C)C(=O)c1ccccc1
- EC50 (Ecdysone receptor [2]): > 100 µM
- pEC50 [5]: inactive

SMILES: CC(C)(C)N(NC(=O)c1ccccc1)C(=O)C1CCCCC1
- EC50 (Ecdysone receptor [2]): 46.8 µM
- pEC50 [5]: inactive

SMILES: CC(C)(C)N(NC(=O)c1ccccc1)C(=O)c1ccccc1Br
- EC50 (Ecdysone receptor [1]): 0.794 µM
- EC50 (Ecdysone receptor [2]): 0.17 µM
- Efficacy [3]: 55%
- EC50 (Ecdysone receptor [4]): 81.3 µM

SMILES: CCCCCC(=O)N(NC(=O)c1cc(C)cc(C)c1)C(C)(C)C
- EC50 (Ecdysone receptor [2]): 8.71 µM
- pEC50 [5]: inactive

SMILES: Cc1cc(C)cc(C(=O)NN(C(=O)CCCC(C)C)C(C)(C)C)c1
- EC50 (Ecdysone receptor [2]): > 100 µM
- pEC50 [5]: inactive

SMILES: CC(C)(C)N(NC(=O)c1ccccc1)C(=O)c1ccccc1I
- EC50 (Ecdysone receptor [1]): 1.2 µM
- EC50 (Ecdysone receptor [2]): 0.105 µM
- Efficacy [3]: 52%
- EC50 (Ecdysone receptor [4]): 91.2 µM

SMILES: Cc1ccccc1C(=O)N(NC(=O)c1ccccc1)C(C)(C)C
- EC50 (Ecdysone receptor [1]): 3.8 µM
- EC50 (Ecdysone receptor [2]): 0.224 µM
- Efficacy [3]: 45%
- EC50 (Ecdysone receptor [4]): 120 µM

SMILES: CC(C)(C)N(NC(=O)c1ccccc1Cl)C(=O)c1ccccc1Cl
- EC50 (Ecdysone receptor [1]): 2.57 µM
- EC50 (Ecdysone receptor [2]): 0.331 µM
- Efficacy [3]: 48%
- EC50 (Ecdysone receptor [4]): 105 µM

SMILES: CCCCCCC(=O)N(NC(=O)c1ccccc1)C(C)(C)C
- EC50 (Ecdysone receptor [2]): 7.24 µM
- pEC50 [5]: inactive

SMILES: Cc1ccc(NC2CCN(C(=O)c3ccc(Cl)cc3)CC2)cc1
- pEC50 [7]: inactive
- pEC50 [5]: inactive

SMILES: CCc1ccc(C(=O)NN(C(=O)C2CCCCC2)C(C)(C)C)cc1
- EC50 (Ecdysone receptor [2]): 9.33 µM
- pEC50 [5]: inactive

SMILES: CCCc1ccc(C(=O)NN(C(=O)c2ccccc2Cl)C(C)(C)C)cc1
- EC50 (Ecdysone receptor [2]): 0.00912 µM
- Efficacy [6]: 52%
- EC50 (Ecdysone receptor [4]): 9.77 µM

SMILES: CCc1ccc(C(=O)NC(CC)(CC)C(=O)c2cc(C)cc(C)c2)cc1
- pEC50 [5]: inactive

SMILES: CC(C)(C)N(NC(=O)c1ccccc1)C(=O)c1ccccc1Cl
- EC50 (Ecdysone receptor [2]): 0.0759 µM
- Efficacy [6]: 57%
- EC50 (Ecdysone receptor [4]): 8.51 µM

SMILES: Cc1cc(C)cc(C(=O)NN(C(=O)CCC(C)C)C(C)(C)C)c1
- EC50 (Ecdysone receptor [2]): 14.5 µM
- pEC50 [5]: inactive

SMILES: CCCCCCC(=O)N(NC(=O)c1ccc(CC)cc1)C(C)(C)C
- EC50 (Ecdysone receptor [2]): 11.7 µM
- pEC50 [5]: inactive

SMILES: Cc1ccc(C(=O)NN(C(=O)c2ccccc2Cl)C(C)(C)C)cc1
- EC50 (Ecdysone receptor [1]): 0.219 µM
- EC50 (Ecdysone receptor [2]): 0.0186 µM
- Efficacy [3]: 79%
- EC50 (Ecdysone receptor [4]): 3.24 µM
